Assay results from patent publication US8778966B2, “Quinolinone derivatives as PARP and tank inhibitors” (Janssen Pharmaceutica, NV, priority 2007, dated 2014).

Key:
[1] = biological target: T1, TANK-2 enzyme (Homo sapiens, UniProt Q9H2K2); test: In vitro Scintillation Proximity Assay (SPA) for TANK-2 inhibitory activity; assay type: biochemical; conditions: read-out: in vitro SPA assay TANK-2 pIC50 (converted)
T1 construct: made in house
T1 sequence (Q9H2K2 1-1166): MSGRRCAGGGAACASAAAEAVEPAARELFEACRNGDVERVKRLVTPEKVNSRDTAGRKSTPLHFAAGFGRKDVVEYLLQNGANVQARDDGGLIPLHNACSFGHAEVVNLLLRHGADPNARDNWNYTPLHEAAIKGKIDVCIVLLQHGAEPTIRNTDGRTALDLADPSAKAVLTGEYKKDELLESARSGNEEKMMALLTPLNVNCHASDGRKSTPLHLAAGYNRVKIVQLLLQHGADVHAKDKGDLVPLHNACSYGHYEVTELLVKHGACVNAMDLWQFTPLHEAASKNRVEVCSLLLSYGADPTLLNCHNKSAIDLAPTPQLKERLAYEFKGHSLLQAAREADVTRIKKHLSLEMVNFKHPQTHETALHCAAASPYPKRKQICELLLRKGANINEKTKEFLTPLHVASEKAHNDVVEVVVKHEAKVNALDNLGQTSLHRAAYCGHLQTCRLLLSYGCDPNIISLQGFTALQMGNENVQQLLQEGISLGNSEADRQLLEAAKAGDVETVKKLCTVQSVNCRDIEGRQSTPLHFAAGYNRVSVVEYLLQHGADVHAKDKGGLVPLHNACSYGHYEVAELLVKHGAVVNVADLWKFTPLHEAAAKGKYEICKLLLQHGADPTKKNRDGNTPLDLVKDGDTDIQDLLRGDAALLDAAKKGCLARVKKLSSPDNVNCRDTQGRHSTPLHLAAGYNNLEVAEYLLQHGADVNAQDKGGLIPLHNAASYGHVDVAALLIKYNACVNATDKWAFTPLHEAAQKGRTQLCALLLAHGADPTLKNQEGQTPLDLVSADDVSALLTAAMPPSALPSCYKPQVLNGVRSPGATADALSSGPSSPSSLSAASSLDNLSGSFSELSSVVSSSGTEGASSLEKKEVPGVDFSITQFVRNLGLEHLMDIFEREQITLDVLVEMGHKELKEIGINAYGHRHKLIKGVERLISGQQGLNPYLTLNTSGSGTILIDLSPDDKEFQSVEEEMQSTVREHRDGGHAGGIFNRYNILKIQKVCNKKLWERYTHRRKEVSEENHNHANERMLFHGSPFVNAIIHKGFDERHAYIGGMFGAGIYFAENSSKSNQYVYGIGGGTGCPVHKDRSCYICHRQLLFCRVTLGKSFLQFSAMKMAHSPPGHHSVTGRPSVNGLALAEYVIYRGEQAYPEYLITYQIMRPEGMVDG
Outline: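 TANK-2 (8 μg/ml final) auto-poly(ADP-ribosyl)ation with [3H]-NAD+/NAD donor was run in Ni flash plates in Tris/HCl pH 7.4 buffer with DTT and MgCl2, 120 min at room temperature, then stopped with excess NAD and scintillation-counted. Blank-corrected cpm was expressed as % of enzyme control, and IC50 was linearly interpolated and reported as pIC50.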

[2] = tested on: tubulin; test: Tubulin polymerization assay; assay type: biochemical; set-up: key: a compound showing 0 to 50% inhibition at 20 μM is reported as score 1; Score 2 compounds are defined as compound showing more than 50% inhibition at 20 μM and less than 50% inhibition at 5 μM; a compound showing more than 50% inhibition at 5 μM is reported as score 3; conditions: tested at 20 μM and 5 μM
Outline: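 Cytoskeleton kit tubulin was run in a 10 µl final volume at 37 °C, with fluorescence read every minute for 1 h. Polymerization was taken as the maximum slope (4-point linear regression) and expressed as % of no-compound control. Compounds were tested at 20 µM, then at 5 µM if inhibition exceeded 50%, and scored by % inhibition.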

Row | SMILES | melting point [°C] | IC50 [1] [nM] | tubulin polymerisation score [2]
1 | CCc1cc2ccc(C(C)(C#N)Cc3cccc(C#C[Si](C)(C)C)c3)cc2[nH]c1=O (stereo not shown) [Compound 1] | 178 | 3980 | –
2 | CCc1cc2ccc([C@@](C)(C#N)Cc3ccccc3)cc2[nH]c1=O (single isomer, unassigned) [Compound 46] | 177 | 25.1 | 2
3 | CCc1cc2ccc(C(C)(C#N)Cc3cccc(COC)c3)cc2[nH]c1=O (stereo not shown) [Compound 8] | 122 | 79.4 | –
4 | CCc1cc2ccc(C(C#N)(Cc3ccccc3)CC3CC3)cc2[nH]c1=O (stereo not shown) [Compound 28] | 212 | 316 | –
5 | CCc1cc2ccc([C@](C)(C#N)Cc3nc(OC)cc(OC)n3)cc2[nH]c1=O (single isomer, unassigned) [Compound 52] | 178 | 200 | 1 (a compound showing 0 to 50% inhibition at 20 μM is reported as score 1)
6 | CCc1cc2ccc(C(C)(C#N)Cc3cccc(Br)c3)cc2[nH]c1=O (stereo not shown) [Compound 49] | 186 | 31.6 | –
7 | CCc1cc2ccc(C(C)(C#N)CC3COc4ccccc4O3)cc2[nH]c1=O (single isomer, unassigned) [Compound 47] | 176 | 316 | –
8 | CC(C#N)(Cc1ccccc1)c1ccc2cc(CO)c(=O)[nH]c2c1 (stereo not shown) [Compound 40] | 176 | 158 | –
9 | CCc1cc2ccc(C(C)(C#N)Cc3nnsc3Cl)cc2[nH]c1=O (stereo not shown) [Compound 42] | 220 | 79.4 | 1 (a compound showing 0 to 50% inhibition at 20 μM is reported as score 1)
10 | CCc1cc2ccc([C@@](C)(C#N)Cc3nc(OC)cc(OC)n3)cc2[nH]c1=O (single isomer, unassigned) [Compound 53] | 163 | 158 | 3 (a compound showing more than 50% inhibition at 5 μM is reported as score 3)
11 | CCc1cc2ccc(C(C)(C#N)Cc3cccc(C#N)c3)cc2[nH]c1=O (stereo not shown) [Compound 51] | 192 | 39.8 | –
12 | CCc1cc2ccc([C@](C)(C#N)Cc3ccccc3)cc2[nH]c1=O (single isomer, unassigned) [Compound 45] | 162 | 25.1 | –
13 | CCc1cc2ccc(C(C)(C#N)Cc3nc(OC)cc(OC)n3)cc2[nH]c1=O (stereo not shown) [Compound 43] | 90 | 158 | –
14 | CCc1cc2ccc(C(C)(C#N)CCOc3ccc([N+](=O)[O-])cc3)cc2[nH]c1=O (stereo not shown) [Compound 54] | 216 | 158 | –
15 | CCc1cc2ccc(C(C)(C#N)Cc3cccc(CO)c3)cc2[nH]c1=O (stereo not shown) [Compound 9] | 182 | 63.1 | –
